Reference: patent US20230086833A1, “DEFIBROTIDE TREATMENT FOR THE PREVENTION OF ORGAN REJECTION AND INJURY” (Jazz Pharmaceuticals Ireland Limited, priority 2020, published 2023)

Test system: autologous dog kidney transplant model for IRI
Experiment: Autologous dog kidney transplant model for ischaemia reperfusion injury (IRI)
Format: in vivo
Description: An autologous dog kidney transplant model for IRI was developed (FIG. 1). The right kidney was removed from a dog at day 0 of the study and was exposed to cold ischemia for 32 hours. After exposure to cold ischemia, the right kidney developed IRI. Subsequently, in an autotransplant, the right kidney was implanted, and the left kidney was removed. Defibrotide was administered to the dog prior to transplant and after transplant four times per day for 7 days at doses of 3 mg/kg, 10 mg/kg, or 25 mg/kg. Clinical endpoints were evaluated, including bleeding at the anastomosis site, coagulation, renal function labs, serum creatinine, blood urea nitrogen (BUN), histopathology at sacrifice, and the measurement of biomarkers, including endothelin-1, Kim-1, ICAM-1, E-selectin, t-PA, PAI-1, Thrombomodulin, IL-6, TNF-α, MCP-1, and A2M.
The gross dog kidney morphology was evaluated at the termination of the study.
The creatinine level, a marker of renal function, was measured pre-transplant and post-transplant after treatment with saline control, 3 mg/kg, 10 mg/kg, or 25 mg/kg of defibrotide. […] Each curve represents a different dog.

defibrotide
severity of hemorrhage after IRI (FIG. 2, dose response) (after higher doses of defibrotide, saline control): the severity of hemorrhage lessened | creatinine levels (marker of renal function, FIG. 3) (after six days of defibrotide, 3, 10 or 25 mg/kg, post-transplant): decreased to levels just above normal | hemorrhage, gross dog kidney morphology at the termination of the study (higher doses of defibrotide (3, 10 or 25 mg/kg, four times per day for 7 days), kidney exposed to cold ischemia for 32 hours): Minimal hemorrhage | renal function post IRI (higher doses of defibrotide, after transplant): improved renal function
